# Test results from patent US8106055B2, “Substituted amide compounds” (Gruenenthal GmbH, priority 2007, dated 2012).
# Molecular target: T1, bradykinin 1 receptor (B1R) of the rat (Rattus norvegicus, UniProt P97583)
# T1 construct: expressed in transfected cells; host or cells: CHO K1 cells
# T1 sequence (P97583 1-337): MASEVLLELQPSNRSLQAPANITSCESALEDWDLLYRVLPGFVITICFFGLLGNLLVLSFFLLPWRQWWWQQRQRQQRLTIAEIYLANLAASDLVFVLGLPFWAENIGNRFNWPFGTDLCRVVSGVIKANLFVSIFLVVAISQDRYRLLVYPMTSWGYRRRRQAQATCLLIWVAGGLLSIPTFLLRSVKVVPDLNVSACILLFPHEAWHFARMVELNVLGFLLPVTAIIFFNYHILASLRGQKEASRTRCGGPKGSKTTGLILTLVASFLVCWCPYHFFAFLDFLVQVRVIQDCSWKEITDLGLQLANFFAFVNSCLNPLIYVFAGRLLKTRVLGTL
# Test: Functional investigation on the rat bradykinin 1 receptor (B1R), Ca2+ FLIPR assay in CHO K1 rB1R cells
# Assay type: cell-based
# Details: CHO-K1, B1R antagonism rat; test substance 10 μM; Ca2+ FLIPR, CHO K1 rB1R cells; read-out: B1R Ant. r [10 μM] % Inhibition
# Procedure, shortened: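 Peak Ca2+-dependent fluorescence in B1R-transfected CHO K1 cells measures antagonism of an EC80 agonist challenge given 10-20 min after compound. Agonist is Lys-Des-Arg9-bradykinin for human, Des-Arg9-bradykinin for rat receptor.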
row,Structure (SMILES),inhibition at 10 µM [%]
1,"CN(C)C(c1cccs1)C1CCC(NC(=O)COC2CCN(S(=O)(=O)c3ccc(F)cc3)C2)CC1 (stereo not shown) [Example 28, N-(4-((dimethylamino)(thiophen-2-yl)methyl)cyclohexyl)-2-(1-(4-fluorophenylsulfonyl)pyrrolidin-3-yloxy)acetamide]",17
2,"CN(C)C(c1ccccc1)C1CCC(CNC(=O)COCCN(C)S(=O)(=O)c2c(Cl)cc(Cl)cc2Cl)CC1 (stereo not shown) [Example 14, N-((4-((dimethylamino)(phenyl)methyl)cyclohexyl)methyl)-2-(2-(2,4,6-trichloro-N-methylphenylsulfonamido)ethoxy)acetamide]",40
3,"CN(C)C(c1cccc(F)c1)C1CCC(NC(=O)COCCN(Cc2ccccc2)S(=O)(=O)c2ccccc2)CC1 (stereo not shown) [Example 175, 2-(2-(N-benzylphenylsulfonamido)ethoxy)-N-(4-((dimethylamino)(3-fluorophenyl)methyl)cyclohexyl)acetamide]",5
4,"COc1cc(C)c(S(=O)(=O)N(C)CCOCC(=O)NCCC2CCC(C(c3cccc(F)c3)N(C)C)CC2)c(C)c1 (stereo not shown) [Example 197, N-(2-(4-((dimethylamino)(3-fluorophenyl)methyl)cyclohexyl)ethyl)-2-(2-(4-methoxy-N,2,6-trimethylphenylsulfonamido)ethoxy)acetamide]",105
5,"CN(C)C(c1cccs1)C1CCC(NC(=O)COCCN(Cc2ccccc2)S(=O)(=O)c2ccccc2)CC1 (stereo not shown) [Example 161, 2-(2-(N-benzylphenylsulfonamido)ethoxy)-N-(4-((dimethylamino)(thiophen-2-yl)methyl)cyclohexyl)acetamide]",3
6,"CN(C)C(c1cccs1)C1CCC(NC(=O)COC2CCN(S(=O)(=O)c3ccccc3)C2)CC1 (stereo not shown) [Example 194, N-(4-((dimethylamino)(thiophen-2-yl)methyl)cyclohexyl)-2-(1-(phenylsulfonyl)pyrrolidin-3-yloxy)acetamide]",14
7,"COc1ccc(S(=O)(=O)N2CCCC2COCC(=O)NC2CCC(C(c3cccs3)N(C)C)CC2)cc1 (stereo not shown) [Example 162, N-(4-((dimethylamino)(thiophen-2-yl)methyl)cyclohexyl)-2-((1-(4-methoxyphenylsulfonyl)pyrrolidin-2-yl)methoxy)acetamide]",21
8,"CN(C)C(c1cccc(F)c1)C1CCC(CCNC(=O)COCCN(C)S(=O)(=O)c2cccc(C(F)(F)F)c2)CC1 (stereo not shown) [Example 192, N-(2-(4-((dimethylamino)(3-fluorophenyl)methyl)cyclohexyl)ethyl)-2-(2-(N-methyl-3-(trifluoromethyl)phenylsulfonamido)ethoxy)acetamide]",10
9,"COc1cc(C)c(S(=O)(=O)N(CCOCC(=O)NCCC2CCC(C(c3cccs3)N(C)C)CC2)Cc2ccccc2)c(C)c1 (stereo not shown) [Example 149, 2-(2-(N-benzyl-4-methoxy-2,6-dimethylphenylsulfonamido)ethoxy)-N-(2-(4-((dimethylamino) (thiophen-2-yl)methyl)cyclohexyl)ethyl)acetamide]",10
10,"Cc1cc(C)c(S(=O)(=O)N2CCC(OCC(=O)NCC3CCC(C(c4ccccc4)N(C)C)CC3)C2)c(C)c1 (stereo not shown) [Example 26, N-((4-((dimethylamino)(phenyl)methyl)cyclohexyl)methyl)-2-(1-(mesitylsulfonyl)pyrrolidin-3-yloxy)acetamide]",38
11,"COc1ccc(S(=O)(=O)N2CCCC2COCC(=O)NC2CCC(C(c3ccccc3)N(C)C)CC2)cc1 (stereo not shown) [Example 182, N-(4-((dimethylamino)(phenyl)methyl)cyclohexyl)-2-((1-(4-methoxyphenylsulfonyl)pyrrolidin-2-yl)methoxy)acetamide]",25
12,"COc1ccc(S(=O)(=O)N2CCCCC2COCC(=O)NCC2CCC(C(c3cccc(F)c3)N(C)C)CC2)cc1 (stereo not shown) [Example 179, N-((4-((dimethylamino)(3-fluorophenyl)methyl)cyclohexyl)methyl)-2-((1-(4-methoxyphenylsulfonyl)piperidin-2-yl)methoxy)acetamide]",67
13,"CN(C)C(c1cccc(F)c1)C1CCC(CNC(=O)COC2CCCCC2N(C)S(=O)(=O)c2ccc(Cl)c(Cl)c2)CC1 (stereo not shown) [Example 164, 2-(2-(3,4-dichloro-N-methylphenylsulfonamido)cyclohexyloxy)-N-((4-((dimethylamino)(3-fluorophenyl)methyl)cyclohexyl)methyl)acetamide]",17
14,"Cc1cc(C)c(S(=O)(=O)N2CCC(OCC(=O)NC3CCC(C(c4cccs4)N(C)C)CC3)C2)c(C)c1 (stereo not shown) [Example 12, N-(4-((dimethylamino)(thiophen-2-yl)methyl)cyclohexyl)-2-(1-(mesitylsulfonyl)pyrrolidin-3-yloxy)acetamide]",30
15,"CN(C)C(c1cccc(F)c1)C1CCC(CNC(=O)COCCN(C)S(=O)(=O)c2c(Cl)cc(Cl)cc2Cl)CC1 (stereo not shown) [Example 188, N-((4-((dimethylamino)(3-fluorophenyl)methyl)cyclohexyl)methyl)-2-(2-(2,4,6-trichloro-N-methylphenylsulfonamido)ethoxy)acetamide]",13
16,"COc1cc(C)c(S(=O)(=O)N(CCOCC(=O)NCC2CCC(C(c3ccccc3)N(C)C)CC2)Cc2ccccc2)c(C)c1 (stereo not shown) [Example 148, 2-(2-(N-benzyl-4-methoxy-2,6-dimethylphenylsulfonamido)ethoxy)-N-((4-((dimethylamino)(phenyl)methyl)cyclohexyl)methyl)acetamide]",46
17,"CN(C)C(c1ccccc1)C1CCC(CNC(=O)COCC2CCCCN2S(=O)(=O)c2ccc(Cl)c(Cl)c2)CC1 (stereo not shown) [Example 17, 2-((1-(3,4-dichlorophenylsulfonyl)piperidin-2-yl)methoxy)-N-((4-((dimethylamino)(phenyl)methyl)cyclohexyl)methyl)acetamide]",22
18,"Cc1ccc(S(=O)(=O)N2CCC(OCC(=O)NC3CCC(C(c4cccs4)N(C)C)CC3)C2)cc1 (stereo not shown) [Example 156, N-(4-((dimethylamino)(thiophen-2-yl)methyl)cyclohexyl)-2-(1-tosylpyrrolidin-3-yloxy)acetamide]",20
19,"CN(C)C(c1cccs1)C1CCC(NC(=O)COCCN(C)S(=O)(=O)c2ccc(F)cc2)CC1 (stereo not shown) [Example 10, N-(4-((dimethylamino)(thiophen-2-yl)methyl)cyclohexyl)-2-(2-(4-fluoro-N-methylphenylsulfonamido)ethoxy)acetamide]",9
20,"COc1ccc(S(=O)(=O)N2CCC(OCC(=O)NCC3CCC(C(c4cccc(F)c4)N(C)C)CC3)C2)cc1OC (stereo not shown) [Example 184, 2-(1-(3,4-dimethoxyphenylsulfonyl)pyrrolidin-3-yloxy)-N-((4-((dimethylamino)(3-fluorophenyl)methyl)cyclohexyl)methyl)acetamide]",38
21,"CN(C)C(c1cccc(F)c1)C1CCC(NC(=O)COC2CCN(S(=O)(=O)c3cccc(C(F)(F)F)c3)C2)CC1 (stereo not shown) [Example 139, N-(4-((dimethylamino)(3-fluorophenyl)methyl)cyclohexyl)-2-(1-(3-(trifluoromethyl)phenylsulfonyl)pyrrolidin-3-yloxy)acetamide]",21
22,"CN(C)C(c1cccc(F)c1)C1CCC(CCNC(=O)COCCN(C)S(=O)(=O)c2ccc(Cl)cc2)CC1 (stereo not shown) [Example 186, 2-(2-(4-chloro-N-methylphenylsulfonamido)ethoxy)-N-(2-(4-((dimethylamino)(3-fluorophenyl)methyl)cyclohexyl)ethyl)acetamide]",35
